According to patent USRE42748E1, “Oral DTPA for radionuclide chelation” (priority 2006, dated 2011):
“And” between values parts separate entries of the source, which are not always exact repeats. Identical values can stand only once.

Columns and labels:
[1] = Oral bioavailability of two additional Ca-DTPA formulations in beagle dogs (SRI Study B221B-06)
Procedure: Oral bioavailability is assessed using the Beagle dog, or equivalent model, wherein levels of plasma Ca/Zn-DTPA from an orally administered composition are compared to levels obtained after i.v. administration using the calculation: BA=AUCPO×Doseiv/AUCiv×DosePO; where BA=bioavailability and AUC=area under the plasma concentration-time curve.
Two additional oral formulations of Ca-DTPA were studied in male and female beagle dogs to determine the effect of modifications in the formulation on oral bioavailability (SRI Study B221B-06). The dose administered was 10 mg/kg plus ˜100 μCi/kg. One male and one female dog received the drug in a bead formulation that consisted of 42.22% DTPA, 25.33% Labrasol®, 8.44% CAB-O-SIL EH5, 24.0% HPMC K110M, and 17.17% water; the other male and female dog were administered DTPA in a liquid formulation that consisted of 20% Labrasol®. In both dose groups, the formulated drug was added to size “0” capsules, then sealed and stored until administration.

[2] = Bioavailability study after liquid dose of radiolabeled DTPA (14C) in male Sprague-Dawley rats (SRI Study B230-06); format: in vivo
Procedure: The objective of this study was to determine the oral bioavailability of Ca-DTPA using radioactive ^14C-DTPA tracer for detection in male Sprague Dawley rats after oral administration in several different formulations. After oral gavage of Ca-DTPA or DTPA (free acid) in sterile water, the oral bioavailability of DTPA is estimated to be about 7% in these two treatment groups. […] In Group 7, which also was administered DTPA in 20% Labrasol (+Quinidine pretreatment), the mean bioavailability was 10%, but this group had greater interindividual variability than seen in the other treatment groups.

iron-loaded dogs = assay: Excretion of iron after repeat dose administration of DTPA in iron-loaded dogs; format: in vivo, beagle dogs; design: Excretion of Fe in urine / Excretion of Fe in urine, Total: unit not given here; details: for Excretion of Fe in urine, Total: sum 4 hr to 120 hr; for excretion of Fe after oral DTPA as % of the amount excreted by intravenously treated animals: oral vs IV
Procedure: The objective of this study was to evaluate the efficacy of an oral formulation of DTPA to enhance the excretion of iron in urine from iron-loaded dogs. Iron-loaded dogs were used in the study as a surrogate model for contamination by transuranic elements.
Two treatment groups, consisting of one male and one female dog, were compared. Ca-DTPA in sterile saline was administered by the intravenous route, 10 mg/kg, on Day 1, followed by 4 days of treatment with Zn-DTPA (10 mg/kg daily). The oral treatment group was also administered 10 mg/kg in 20% Labrasol® in capsules, with Ca-DTPA on Day 1 and Zn-DTPA on Days 2-5. Blood was collected from each dog at the following time points: predose and 1, 4, 8, and 24 hr after dose administration on Day 1, and at 24 hr postdose on Days 2-5. Dogs were maintained in metabolism cages for the study, and urine was collected at 4, 8, and 24 hr after the Day 1 dose, and every 24 hr after the Day 2-5 doses. Collected samples were analyzed for iron, calcium, and zinc by Perkin-Elmer ICP (Inductively Coupled Plasma) unit.

[3] = test system: harvested rat small intestinal segments: Jejunum; assay: Ussing chamber mucosal to serosal transport across rat jejunum; format: in vitro ADME
Procedure: (§1) The primary objective of these in vitro studies was to determine a formulation containing permeation enhancers/other additives that achieved maximum transport of DTPA from mucosal to serosal side of the intestine. The mucosal to serosal absorption of DTPA (Zinc/Calcium) was measured in vitro across harvested rat intestinal segments and colon, in an EasyMount Ussing System (Physiological Instruments Inc., CA, Item #EM-CSYS-8). The Ussing chamber consists of two diffusion chambers, a heating block for temperature control, needle valves for gas flow adjustment and gas lift stirring, and Ag/AgCl voltage and current electrodes for measuring transepithelial voltage and for passing current. Representative sections of the harvested rat small intestinal segments (jejunum, duodenum, and ileum) and the rat colon were mounted on sliders placed between the chambers, and DTPA (Zinc/Calcium) transport across the sections was monitored. Aliquots of sample solution were removed from the ‘serosal’ side at 30 min intervals and analyzed by high performance liquid chromatography (HPLC). The change in mucosal to serosal transport of DTPA (Zinc/Calcium) in the presence of different permeation enhancers was determined.
Zn-DTPA and Ca-DTPA was dissolved in HEPES buffer (VWR, Brisbane, Calif.), with or without additives, at the predetermined drug concentrations. HEPES buffer was used as the base mucosal and serosal fluid. Before initiating the experiment, 5 ml of HEPES buffer was added to each of the two chambers (mucosal and serosal) and was allowed to equilibrate for 20 min. Next, the mucosal buffer was replaced by the appropriate formulation to be tested and the experiment was initiated. Aliquots (0.5 ml) were collected from the serosal side and were replaced with an equivalent amount of fresh HEPES buffer (maintained at physiological temperature). The aliquotted samples from the serosal side were analyzed by HPLC.
Owing to the expected variation in the in vitro conditions and harvested rat intestinal segments, five replicates were used per experimental condition. In order to compare data obtained from the different experiments, the apparent permeability coefficients (Papp) were calculated according to:
[formula] Where, dQ/dt is the linear appearance rate of mass in receiver compartment, C0 is the initial solute concentration in donor compartment, and A is the surface area. The higher the Papp value, the better the permeation property. The similarity of the Papp values indicates similar behavior for the two DTPA compounds.
We then evaluated transport of Zn-DTPA and Ca-DTPA through jejunum segments with and without Labrasol.
We then tested the transport of 100 mg/ml DTPA in HEPES buffer with and without added enhancers across jejunum segments; results are in Table 3.

[4] = test system: harvested rat small intestinal segments: Duodenum; assay: Ussing chamber mucosal to serosal transport across rat duodenum; format: in vitro ADME; details: 5 mg/ml of DTPA in HEPES Buffer
Procedure: as §1
(§2) Zn-DTPA and Ca-DTPA was dissolved in HEPES buffer (VWR, Brisbane, Calif.), with or without additives, at the predetermined drug concentrations. […]

[5] = test system: harvested rat small intestinal segments: Ileum; assay: Ussing chamber mucosal to serosal transport across rat ileum; format: in vitro ADME; details: 5 mg/ml of DTPA in HEPES Buffer
Procedure: as §1, §2

rat colon = assay: Ussing chamber mucosal to serosal transport across rat colon; format: in vitro ADME; details: 5 mg/ml of DTPA in HEPES Buffer
Procedure: as §1, §2

## O=C(O)CN(CCN(CC(=O)O)CC(=O)O)CCN(CC(=O)O)CC(=O)O [DTPA]
[1]; by 24 hr, both treatment groups (bead and liquid capsule)
  dose excreted in the feces: 73-74%
[1]; by 264 hr after dose administration, oral Labrasol formulations
  dose recovered in the excreta: 95-96%
[2]; Group 4 Oral, 20% Labrasol
  % Bioavailability Mean ± SD: ~12%
[2]; Group 7 Oral, 0.15 mM Quinidine pretreatment then 20% Labrasol
  % Bioavailability Mean ± SD: 10%
[2]; Group 7 Oral, 0.15 mM Quinidine pretreatment then 20% Labrasol, individual rats
  % Bioavailability: 19%
iron-loaded dogs; Dog 1M, IV 10 mg/kg daily, Time 48 hr
  Excretion of Fe in urine: 0.6044
iron-loaded dogs; Dog 1M, IV 10 mg/kg daily, Time 72 hr
  Excretion of Fe in urine: 0.1732
iron-loaded dogs; Dog 1M, IV 10 mg/kg daily, Time 96 hr
  Excretion of Fe in urine: 0.1762
iron-loaded dogs; Dog 1M, IV 10 mg/kg daily, Time 120 hr
  Excretion of Fe in urine: 0.2324
iron-loaded dogs; Dog 1M, IV 10 mg/kg daily
  Excretion of Fe in urine, Total: 1.444
iron-loaded dogs; Dog 1M, IV 10 mg/kg, Time 4 hr
  Excretion of Fe in urine: 0.0970
iron-loaded dogs; Dog 1M, IV 10 mg/kg, Time 8 hr
  Excretion of Fe in urine: 0.0471
iron-loaded dogs; Dog 1M, IV 10 mg/kg, Time 24 hr
  Excretion of Fe in urine: 0.1136
iron-loaded dogs; Dog 1M, IV in saline 10 mg/kg (Ca-DTPA Day 1, Zn-DTPA Days 2-5), Time 0 hr (predose)
  Excretion of Fe in urine: 0.1297
iron-loaded dogs; Dog 2F, IV 10 mg/kg daily, Time 48 hr
  Excretion of Fe in urine: 0.2686
iron-loaded dogs; Dog 2F, IV 10 mg/kg daily, Time 72 hr
  Excretion of Fe in urine: 0.1623
iron-loaded dogs; Dog 2F, IV 10 mg/kg daily, Time 96 hr
  Excretion of Fe in urine: 0.2884
iron-loaded dogs; Dog 2F, IV 10 mg/kg daily, Time 120 hr
  Excretion of Fe in urine: 0.0166
iron-loaded dogs; Dog 2F, IV 10 mg/kg daily
  Excretion of Fe in urine, Total: 0.925
iron-loaded dogs; Dog 2F, IV 10 mg/kg, Time 4 hr
  Excretion of Fe in urine: 0.0975
iron-loaded dogs; Dog 2F, IV 10 mg/kg, Time 8 hr
  Excretion of Fe in urine: 0.0124
iron-loaded dogs; Dog 2F, IV 10 mg/kg, Time 24 hr
  Excretion of Fe in urine: 0.0792
iron-loaded dogs; Dog 2F, IV in saline 10 mg/kg (Ca-DTPA Day 1, Zn-DTPA Days 2-5), Time 0 hr (predose)
  Excretion of Fe in urine: 0.1158
iron-loaded dogs; Dog 3M, Oral 10 mg/kg in 20% Labrasol capsules (Ca-DTPA Day 1, Zn-DTPA Days 2-5), Time 0 hr (predose)
  Excretion of Fe in urine: 0.0947
iron-loaded dogs; Dog 3M, Oral 10 mg/kg in 20% Labrasol capsules, Time 4 hr
  Excretion of Fe in urine: 0.0654
iron-loaded dogs; Dog 3M, Oral 10 mg/kg in 20% Labrasol capsules, Time 8 hr
  Excretion of Fe in urine: 0.0153
iron-loaded dogs; Dog 3M, Oral 10 mg/kg in 20% Labrasol capsules, Time 24 hr
  Excretion of Fe in urine: 0.1000
iron-loaded dogs; Dog 3M, Oral 10 mg/kg in 20% Labrasol capsules, Time 48 hr
  Excretion of Fe in urine: 0.1232
iron-loaded dogs; Dog 3M, Oral 10 mg/kg in 20% Labrasol capsules, Time 72 hr
  Excretion of Fe in urine: 0.0506
iron-loaded dogs; Dog 3M, Oral 10 mg/kg in 20% Labrasol capsules, Time 96 hr
  Excretion of Fe in urine: 0.1869
iron-loaded dogs; Dog 3M, Oral 10 mg/kg in 20% Labrasol capsules, Time 120 hr
  Excretion of Fe in urine: 0.0506
iron-loaded dogs; Dog 3M, Oral 10 mg/kg in 20% Labrasol capsules
  Excretion of Fe in urine, Total: 0.591
iron-loaded dogs; Dog 4F, Oral 10 mg/kg in 20% Labrasol capsules (Ca-DTPA Day 1, Zn-DTPA Days 2-5), Time 24 hr
  Excretion of Fe in urine: 0.0314
iron-loaded dogs; Dog 4F, Oral 10 mg/kg in 20% Labrasol capsules, Time 48 hr
  Excretion of Fe in urine: 0.1162
iron-loaded dogs; Dog 4F, Oral 10 mg/kg in 20% Labrasol capsules, Time 72 hr
  Excretion of Fe in urine: 0.0210
iron-loaded dogs; Dog 4F, Oral 10 mg/kg in 20% Labrasol capsules, Time 96 hr
  Excretion of Fe in urine: 0.0406
iron-loaded dogs; Dog 4F, Oral 10 mg/kg in 20% Labrasol capsules, Time 120 hr
  Excretion of Fe in urine: 0.1089
iron-loaded dogs; Dog 4F, Oral 10 mg/kg in 20% Labrasol capsules
  Excretion of Fe in urine, Total: 0.318
iron-loaded dogs; female Dog 4 (oral group)
  time of highest excretion of Fe in the urine: 48 h
iron-loaded dogs; female dogs
  excretion of Fe after oral DTPA as % of the amount excreted by intravenously treated animals: 34%
iron-loaded dogs; male Dog 1 (intravenous group)
  time of highest excretion of Fe in the urine: 48 h
iron-loaded dogs; male dogs
  excretion of Fe after oral DTPA as % of the amount excreted by intravenously treated animals: 40%
iron-loaded dogs; the other two dogs (Dog 2 IV, Dog 3 oral)
  time of highest excretion of Fe in the urine: 96 h

## O=C([O-])CN(CCN(CC(=O)[O-])CC(=O)[O-])CCN(CC(=O)[O-])CC(=O)[O-].[Na+].[Na+].[Na+].[Zn+2] [Zn-DTPA, zinc diethylenetriaminepentaacetate]
[3]; Jejunum, 5 mg/ml of drug in HEPES Buffer
  Papp: 4.54 ×10⁻⁶ cm/s and 4.28 ×10⁻⁶ cm/s
[3]; jejunum, 5 mg/ml of drug in HEPES Buffer containing 40% Labrasol
  Papp: 19.08 ×10⁻⁶ cm/s
[3]; jejunum, 100 mg/ml DTPA in HEPES buffer, 5% TPGS + 5% Labrasol
  Papp: 6.34 ×10⁻⁶ cm/s
[3]; jejunum, 100 mg/ml DTPA in HEPES buffer, 5% Tween 80 + 5% Labrasol
  Papp: 13.27 ×10⁻⁶ cm/s
[3]; jejunum, 100 mg/ml DTPA in HEPES buffer, 20% Bile Salt
  Papp: 19.65 ×10⁻⁶ cm/s
[3]; jejunum, 100 mg/ml of drug in HEPES Buffer containing 10% Labrasol
  Papp: 4.21 ×10⁻⁶ cm/s
[3]; jejunum, 100 mg/ml of drug in HEPES Buffer containing 20% Labrasol
  Papp: 3.53 ×10⁻⁶ cm/s
[3]; jejunum, 100 mg/ml of drug in HEPES Buffer containing 40% Labrasol
  Papp: 6.81 ×10⁻⁶ cm/s
[3]; jejunum, 100 mg/ml of drug in HEPES Buffer only
  Papp: 5.86 ×10⁻⁶ cm/s
[4]
  Papp: 1.65 ×10⁻⁶ cm/s
[5]
  Papp: 2.07 ×10⁻⁶ cm/s
Rat colon
  Papp: 2.39 ×10⁻⁶ cm/s

## O=C(O)CN(CCN(CC(=O)O)CC(=O)O)CCN(CC(=O)O)CC(=O)O [free acid DTPA]
[2]; Group 3 Oral, water
  % Bioavailability Mean ± SD: 6.80 ± 1.66%
[2]; Group 3 Oral, water, 16.38 mg-equiv DTPA/Kg, 6 hr
  AUC0→last Mean ± SD: 1.21 ± 0.29 Hr * ( ng/ml)
[2]; Group 3 Oral, water, 16.38 mg-equiv DTPA/Kg, last time point 6 hr, individual rats
  AUC0→last: 1.4708 Hr * ( ng/ml) and 0.8897 Hr * ( ng/ml) and 1.2594 Hr * ( ng/ml)
[2]; Group 3 Oral, water, individual rats
  % Bioavailability: 8.29% and 5.02% and 7.10%
[2]; Group 3 Oral, water, listed as DTPA (free acid)
  % Bioavailability Mean ± SD: about 7%

## C=C[C@H]1C[N@@]2CC[C@H]1C[C@@H]2[C@@H](O)c1ccnc2ccc(OC)cc12 [quinidine]
[2]; 0.15 mM quinidine 20 min before DTPA in 20% Labrasol, inferred from rat #19
  inhibition of efflux transport of DTPA: active in inhibiting efflux transport of DTPA
